According to PubChem BioAssay (NCI):
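In this assay, cells in 96-well plates receive the compound at five concentrations for 48 hours. Endpoints are linearly interpolated between the surrounding concentrations. GI50 is the concentration that inhibits growth by half. TGI: concentration producing complete growth inhibition.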

Key:
Assay in all cases: NCI tumour cell line growth inhibition, 48 h
SR leukemia = system: SR leukemia
HCC-2998 colon = system: HCC-2998 colon
ACHN renal = system: ACHN renal
A549 NSCLC = system: A549 NSCLC
SF-268 CNS = system: SF-268 CNS
NCI-H460 lung = system: NCI-H460 lung
SK-MEL-28 melanoma = system: SK-MEL-28 melanoma
RXF 393 renal = system: RXF 393 renal
CAKI-1 renal = system: CAKI-1 renal
HOP-62 NSCLC = system: HOP-62 NSCLC

Compound	GI50 (SR leukemia) [µM]	TGI (SR leukemia) [µM]	GI50 (HCC-2998 colon) [µM]	TGI (HCC-2998 colon) [µM]	GI50 (ACHN renal) [µM]	TGI (ACHN renal) [µM]	GI50 (A549 NSCLC) [µM]	TGI (A549 NSCLC) [µM]	GI50 (SF-268 CNS) [µM]	TGI (SF-268 CNS) [µM]	GI50 (NCI-H460 lung) [µM]	TGI (NCI-H460 lung) [µM]	GI50 (SK-MEL-28 melanoma) [µM]	TGI (SK-MEL-28 melanoma) [µM]	GI50 (RXF 393 renal) [µM]	TGI (RXF 393 renal) [µM]	GI50 (CAKI-1 renal) [µM]	TGI (CAKI-1 renal) [µM]	GI50 (HOP-62 NSCLC) [µM]	TGI (HOP-62 NSCLC) [µM]
COc1ccc(/C=C(/C#N)n2nnc3cccc(F)c32)cc1	0.48	> 100	1.83	7.14	1.31	> 100	1.46	> 100	2.31	> 100	0.703	4.62	1.92	> 100	1.3	6.37	0.733	11.8	3.25	> 100
O=C(/C=C/c1ccc(Cl)cc1)c1ccc(Nc2ccnc3cc(Cl)ccc23)cc1	0.565	> 100	> 80.5	> 100	> 100	> 100	> 100	> 100	> 84	> 100	> 57.6	> 100	31.9	> 100	10.7	> 83.8		> 100	99.2	> 100
CC(C)(C)OC(=O)N[C@H]1CC2(C=C(Cl)C(=O)C(Cl)=C2)OC1=O		> 25		31.8		28.2		> 100		32.3		56.2		25		22.4		26.5		> 73.7
Cc1cc2c(cc1Cl)SC(N(N(C)C)S(=O)(=O)c1ccc(Cl)cc1)=NS2(=O)=O	23.3	91.7	17	44.6	32.1	> 100	20.3	> 100	32.4	> 100	16.9	45.5	29.1	> 100	31.3	> 100	30.5	66.6	29.6	96.1
C=C1NC(=O)C(C(C)CC)NC(=O)C2CSCC(NC(=O)CCC(=O)O)C(=O)NC(Cc3ccccc3)C(=O)NC(C)C(=O)NC(CC(C)CC)C(=O)NC(C(=O)NC(Cc3ccccc3)C(=O)N3CCCC3C(=O)N2)C(C)OC(=O)C(CO)NC(=O)C(C(O)COC)N(C)C(=O)C(C(C)C)NC(=O)C(CC(C)CC)NC1=O (configuration not stated)	0.0259	> 6	0.0377	> 6	0.0553	> 6	0.0268	> 6	0.0342	> 6	0.00439	> 6	> 6	> 6	0.0136	> 6	0.0246	> 6	0.0198	> 6
Nc1ncnc2n[nH]c(Nc3ccc(F)cc3)c12	13.3	94.6	51.9	> 100	5.46	> 100	39.2	> 100	28.7	> 100	16.3	> 100	24.1	88.4	13.6	> 100	4.05	> 100	64.8	> 100
OCc1ccc(-c2ccc(-c3ccc(CO)s3)o2)s1		61.1		4.02		> 94.1		48.1		> 97.1		2.89		> 91.9		1.77		0.061		17.2
N=Nc1c(OC(=O)Nc2cccc(Cl)c2)[nH]c2ccccc12		44.5		17.5		20.3		18.7		27.9		20		28		26.1		15.2		13.1
CCCCCCCC(=O)SCC/C=C/[C@@H]1CC(=O)NCc2cc(ccn2)C2=N[C@@](C)(CS2)C(=O)N[C@@H](C(C)C)C(=O)O1	0.00845	> 33.3	0.0256	0.245	0.0433	0.434	0.0116		0.0387	> 9.59	0.00754	> 11.3	0.0125	1.02	0.0128	0.0822	0.104	0.665	0.00958	
Cc1cc(/C=C/c2ccc3cc(N(C)C)ccc3[n+]2C)c(C)n1-c1ccccc1	0.0442	1.42	0.203	2.64	0.596	1.74	0.182	1.02	0.215	2.87	0.146	0.56	0.568	1.53	0.199	0.987	0.722	2.24	0.191	1.03
CC[C@H](Nc1ncnc2nc[nH]c12)c1oc2ccccc2c(=O)c1-c1cccc(F)c1	11.5	50	35.7	> 100	21.6	> 100	29.2	> 100	22.6	> 100	18.8	58.8	22.6	> 100	13.2	78.2	14.7	> 100	33.8	> 100
Cc1ccccc1S(=O)(=O)OC1NS(=O)(=O)c2ccccc21 (configuration not stated)		> 100		> 100		> 100		> 100		> 100		> 100		> 100		> 100		> 100		> 100
Cn1cnc([N+](=O)[O-])c1Sc1nc2ccccc2[nH]1		45.1		26.9		59.9		54		38.5		64.9		26.1		25.3		17.2		> 100
